Measurements taken from patent US7404948B2, “Peptidic conjugates for alopecia prevention and treatment” (Institut Europeen de Biologie Cellulaire, priority 2003, dated 2008).
Non-standard residues stand in square brackets, D forms with d. hPhe = N[C@@H](CCc1ccccc1)C(=O)O

Test system: anagen-phase mouse vibrissae hair follicles
Test: Growth of mouse vibrissae in vitro (hair follicle culture, Philpott technique)
Format: cell-based
Parameters: unit not given here
Conditions: peptide 10^−7 M, A is acetic acid
Source text: The Effects of Various Peptides on the Growth of Mouse Vibrissae In Vitro
The growth of the hair shaft of these hair follicles was followed for several days (Day 0 to Day 4). The results are reported in the table below for peptides 1- and 2-described above, for which A is acetic acid.

Substance | growth of the hair shaft (Day 0) | growth of the hair shaft (Day 1) | growth of the hair shaft (Day 2) | growth of the hair shaft (Day 3) | growth of the hair shaft (Day 4)
Ac-Arg-Lys-Asp-Val-HomoPhe-NH2 (Ac-RKDV[hPhe]-NH2; also: acetate salt) [Peptide 2-] | 0.00 | 0.83 | 1.46 | 1.62 | 1.62
A-Arg-Lys-Asp-Val-DHomoPhe-NH2 [Peptide 1-] | 0.00 | 0.90 | 1.38 | 1.86 | 1.87
